Experimental findings from patent US20070167369A1, “Novel use of isolated polypeptide comprising four FAS-1 domains, EM1 domain and RGD motif” (KYUNGPOOK NATIONAL UNIVERSITY INDUSTRY-ACADEMIC COOPERATION …, priority 2004, published 2007) are described below.

The assay concerns caspase-3. In words: Caspase-3 activity in HUVECs (Example 7-2). In kind it is cell-based, human. To be noted: caspase-3-specific inhibitor added to samples. On the procedure: With respect to the induction of endothelial cell apoptosis (active cell death) by the fas-1 domain, which had been confirmed in Example 7-1 above, the present inventors measured the activity of caspase-3, which is activated when apoptosis occurs, in the cells treated with the fas-1 domain.
HUVECs were spread onto a 100-mm plate (10 ml culture solution) with M199 medium containing 10% FBS, followed by incubation in a 37° C. incubator for 12 hours. After the incubation, the medium was removed from the plate, the cells were added with fresh medium containing 0.1% FBS and further incubated for 24 hours. The cell-containing medium was treated with 5 μM or 20 μM of the fas-1 domain (βig-h3 D-IV) prepared in Example 1. A control was treated with PBS buffer. At 12 hours and 24 hours after the treatment, the cells were harvested. The caspase-3 activity of the cells was measured with an EnzCheck Caspase-3 Assay Kit(#2) (Molecular Probe Co., Eugene, Oreg., USA). Moreover, to verify that measured values are attributed to caspase-3 activity, each of the samples was treated with DEVD-CHO (Molecular Probe Co., Eugene, Oreg., USA) as a caspase-3-specific inhibitor. The control was treated with DMSO.

As to DEVD-CHO [reference compound], the “inhibition of caspase-3 activities of test groups and control group” value was “inhibited”.
